Data published in patent publication US6706740B2, “Fungicidal heterocyclic aromatic amides and their compositions, methods of use and preparation” (Dow AgroSciences LLC, priority 1999, dated 2004).
Read-outs that look alike come from different tables or passages of the source.

How the values were obtained:
[1] = system: Magnaporthe grisea (Pyricularia oryzae—PYRIOR); experiment: microbe, parasite or virus in culture; assay type: cell-based; conditions: Pyricularia oryzae, read-out: PYRIOR in vitro Growth Inhibition
[2] = system: Rhizoctonia solani (RHIZSO); experiment: microbe, parasite or virus in culture; assay type: cell-based; conditions: Rhizoctonia solani, read-out: RHIZSO in vitro Growth Inhibition
[3] = system: Mycosphaerella graminicola (Septoria tritici—SEPTTR); experiment: In vitro fungal growth inhibition, Mycosphaerella graminicola (SEPTTR); assay type: cell-based; conditions: Zymoseptoria tritici, read-out: SEPTTR in vitro Growth Inhibition
[4] = system: Stagonospora nodorum (Leptosphaeria nodorum—LEPTNO); experiment: In vitro fungal growth inhibition, Stagonospora nodorum (LEPTNO); assay type: cell-based; conditions: Leptosphaeria, read-out: LEPTNO in vitro Growth Inhibition
Ustilago maydis (USTIMA) = experiment: microbe, parasite or virus in culture; assay type: cell-based; conditions: Mycosarcoma maydis, read-out: USTIMA in vitro Growth Inhibition
[5] = system: Phytophthora infestans (PHYTIN); experiment: microbe, parasite or virus in culture; assay type: cell-based; conditions: Phytophthora infestans, read-out: PHYTIN in vitro Growth Inhibition
[6] = system: Phytophthora infestans—PHYTIN; experiment: whole plant or invertebrate; assay type: in vivo; conditions: Phytophthora, in Solanum lycopersicum, 24 h, read-out: PHYTIN in vivo 1 Day Protectant
[7] = system: Puccinia recondita—PUCCRT; experiment: Brown Rust of Wheat, in vivo whole plant, 24 Hour Protectant; conditions: for pest or weed control at 100 ppm: Puccinia, read-out: PUCCRT in vivo 1 Day Protectant
Erysiphe graminis—ERYSGT = experiment: Powdery Mildew of Wheat, in vivo whole plant, 24 Hour Protectant; conditions: Erysiphe, read-out: ERYSGT in vivo 1 Day Protectant
Septoria tritici—SEPTTR = experiment: Leaf Blotch of Wheat, in vivo whole plant, 24 Hour Protectant; conditions: Zymoseptoria tritici, 24 h, read-out: SEPTTR in vivo 1 Day Protectant
[8] = system: Leptosphaeria nodorum—LEPTNO; experiment: Glume Blotch of Wheat, in vivo whole plant, 24 Hour Protectant; conditions: Leptosphaeria, read-out: LEPTNO in vivo 1 Day Protectant
[9] = wheat plants sprayed at 100 ppm, inoculated after 24 hours, control of fungal infection vs untreated plants
[10] = 100 ppm spray, wheat, 24 hour protectant, % control of fungal infection vs untreated plants
[11] = 100 ppm spray, 24 hour protectant, wheat, control of fungal infection vs untreated plants

SMILES	inhibition at 25 ppm [1]	inhibition at 25 ppm [2]	inhibition at 25 ppm ([3]; 25 ppm in the growth medium)	inhibition at 25 ppm ([4]; 25 ppm in the growth medium)	inhibition at 25 ppm (Ustilago maydis (USTIMA))	inhibition at 25 ppm [5]	pest or weed control at 100 ppm [6]	pest or weed control at 100 ppm [7, 9]	pest or weed control at 100 ppm (Erysiphe graminis—ERYSGT; [9])	pest or weed control at 100 ppm (Septoria tritici—SEPTTR; [9])	pest or weed control at 100 ppm [8, 9]	melting point	inhibition at 25 ppm ([3]; 25 ppm in growth medium)	inhibition at 25 ppm ([4]; 25 ppm in growth medium)	pest or weed control at 100 ppm (Erysiphe graminis—ERYSGT; [11])	pest or weed control at 100 ppm (Septoria tritici—SEPTTR; [11])	pest or weed control at 100 ppm [8, 11]	also measured
COc1ccnc(C(=O)Nc2ccc(Oc3cccc(C(F)(F)F)c3)nc2)c1O [Compound 471]	< 80%	< 80%	< 80%	> 80%	< 80%	< 80%	< 25%	25 to 74%	< 25%	25 to 74%	25 to 74%	193 to 195 °C						
COCCC(=O)Oc1c(OC)ccnc1C(=O)Nc1ccc(C(=O)Nc2cccc(C(F)(F)F)c2)cc1 [Compound 713]	< 80%	< 80%			< 80%	< 80%	< 25%					164 to 167 °C	< 80%	< 80%				pest or weed control at 100 ppm [7, 10]: < 25%; pest or weed control at 100 ppm (Erysiphe graminis—ERYSGT; [10]): < 25%; pest or weed control at 100 ppm (Septoria tritici—SEPTTR; [10]): < 25%; pest or weed control at 100 ppm [8, 10]: 25 to 74%
O=C(NCCc1ccc(Cl)cc1)c1cccnc1O [Compound 518]	< 80%	< 80%	< 80%	< 80%	< 80%	< 80%	25 to 74%	< 25%	< 25%	< 25%	< 25%	219 to 221 °C						
O=C(OC1CCC(NC(=O)c2ncccc2O)CC1)c1ccccc1 (stereo not drawn) [Compound 211]	< 80%	< 80%			< 80%	< 80%	< 25%					154 to 157 °C	< 80%	< 80%	< 25%	25 to 74%	25 to 74%	pest or weed control at 100 ppm [7, 11]: < 25%
CC1(C)CC(NC(=O)c2conc2O)CC(C)(C)C1 [Compound 560]	< 80%	< 80%	< 80%	< 80%	< 80%	< 80%	< 25%	25 to 74%	< 25%	25 to 74%	25 to 74%	186 to 188 °C						
Cc1ccnc(C(=O)NC2COC(=O)[C@H](Cc3ccccc3)[C@@H](OC(=O)C(C)C)[C@H](C)OC2=O)c1O (stereo partly drawn) [Compound 237]	< 80%	< 80%			< 80%	< 80%	< 25%					122 to 134 °C	< 80%	< 80%	< 25%	25 to 74%	25 to 74%	PUCCRT in vivo 1 Day Protectant [7, 11]: + +
Cc1ccnc(C(=O)NC2CC(C)(C)CC(C)(C)C2)c1O [Compound 236]	< 80%	< 80%			< 80%	< 80%	< 25%					42 to 45 °C	< 80%	> 80%	< 25%	< 25%	< 25%	pest or weed control at 100 ppm [7, 11]: < 25%
